Tests used:
Test in all cases: whole-cell patch clamp in transfected CHOK1 cells
Format in all cases: cell-based
Nav1.4 [1] = molecular target: Nav1.4 (Homo sapiens, UniProt P35499, F1586A)
Nav1.4 [2] = molecular target: Nav1.4 (Homo sapiens, UniProt P35499, F432W/I1280W/I1583W/V787W)
Nav1.4 [3] = molecular target: T1, Nav1.4 (Homo sapiens, UniProt P35499); settings: CHO-K1, read-out: % block at 350 μM
Nav1.4 [4] = molecular target: T1, Nav1.4; settings: CHO-K1, read-out: % block at 1.1 mM
[5] = CHO-K1, read-out: % block at 1.1 mM

T1 sequence (P35499 whole entry): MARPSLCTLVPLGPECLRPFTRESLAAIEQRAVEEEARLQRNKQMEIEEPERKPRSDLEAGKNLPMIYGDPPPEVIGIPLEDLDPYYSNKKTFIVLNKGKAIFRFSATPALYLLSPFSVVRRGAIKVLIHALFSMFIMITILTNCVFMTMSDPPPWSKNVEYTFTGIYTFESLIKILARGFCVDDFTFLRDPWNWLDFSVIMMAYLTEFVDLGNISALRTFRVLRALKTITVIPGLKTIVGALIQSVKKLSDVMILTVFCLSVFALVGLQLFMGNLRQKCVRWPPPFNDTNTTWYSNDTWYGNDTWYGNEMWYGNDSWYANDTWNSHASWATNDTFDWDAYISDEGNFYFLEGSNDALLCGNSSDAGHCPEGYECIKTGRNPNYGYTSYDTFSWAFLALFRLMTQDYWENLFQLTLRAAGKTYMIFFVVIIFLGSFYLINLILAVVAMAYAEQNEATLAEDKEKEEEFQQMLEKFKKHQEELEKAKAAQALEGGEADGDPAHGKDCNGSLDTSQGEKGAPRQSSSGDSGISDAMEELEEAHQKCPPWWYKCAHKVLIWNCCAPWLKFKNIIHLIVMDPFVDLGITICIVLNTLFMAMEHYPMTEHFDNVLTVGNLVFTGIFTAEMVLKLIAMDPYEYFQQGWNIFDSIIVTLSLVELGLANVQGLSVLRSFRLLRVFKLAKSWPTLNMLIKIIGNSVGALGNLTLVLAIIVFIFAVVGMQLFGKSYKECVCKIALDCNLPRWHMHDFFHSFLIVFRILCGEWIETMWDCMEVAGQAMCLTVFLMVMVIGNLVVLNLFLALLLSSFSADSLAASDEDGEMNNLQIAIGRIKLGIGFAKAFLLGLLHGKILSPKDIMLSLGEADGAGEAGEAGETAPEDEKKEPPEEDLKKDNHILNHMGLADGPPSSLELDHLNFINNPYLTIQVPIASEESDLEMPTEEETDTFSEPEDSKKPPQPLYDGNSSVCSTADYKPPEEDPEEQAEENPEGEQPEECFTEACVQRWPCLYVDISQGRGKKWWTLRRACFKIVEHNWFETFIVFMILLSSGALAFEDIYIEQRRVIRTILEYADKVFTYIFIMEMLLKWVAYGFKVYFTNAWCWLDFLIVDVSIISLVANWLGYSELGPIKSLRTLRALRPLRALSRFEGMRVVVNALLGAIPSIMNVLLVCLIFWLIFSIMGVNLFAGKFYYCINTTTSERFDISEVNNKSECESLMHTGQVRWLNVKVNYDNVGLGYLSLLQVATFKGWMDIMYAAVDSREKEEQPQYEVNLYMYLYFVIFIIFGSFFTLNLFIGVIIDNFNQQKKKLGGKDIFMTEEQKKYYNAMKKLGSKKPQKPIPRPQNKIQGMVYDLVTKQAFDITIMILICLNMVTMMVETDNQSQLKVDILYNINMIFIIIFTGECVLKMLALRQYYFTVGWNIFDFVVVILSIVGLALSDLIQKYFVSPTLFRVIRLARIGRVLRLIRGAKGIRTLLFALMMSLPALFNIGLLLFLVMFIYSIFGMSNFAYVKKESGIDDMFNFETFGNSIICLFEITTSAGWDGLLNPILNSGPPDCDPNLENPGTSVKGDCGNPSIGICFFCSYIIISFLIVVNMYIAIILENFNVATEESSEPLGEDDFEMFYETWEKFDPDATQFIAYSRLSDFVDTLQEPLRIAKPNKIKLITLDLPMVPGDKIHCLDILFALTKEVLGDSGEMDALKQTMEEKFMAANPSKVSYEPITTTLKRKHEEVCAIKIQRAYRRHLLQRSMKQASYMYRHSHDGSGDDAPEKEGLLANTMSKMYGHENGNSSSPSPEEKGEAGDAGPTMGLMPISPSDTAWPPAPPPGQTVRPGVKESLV
T1 sequence (Q07699 19-218 partner): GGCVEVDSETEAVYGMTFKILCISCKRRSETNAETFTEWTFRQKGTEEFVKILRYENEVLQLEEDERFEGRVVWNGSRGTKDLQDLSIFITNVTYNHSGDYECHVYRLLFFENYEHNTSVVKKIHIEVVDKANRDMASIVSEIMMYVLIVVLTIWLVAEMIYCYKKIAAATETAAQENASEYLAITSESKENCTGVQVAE
Nav1.4 (Homo sapiens, UniProt P35499, F432W/I1280W/I1583W/V787W), sequence (P35499 whole entry F432W/V787W/I1280W/I1583W): as the sequence (P35499 whole entry) above, with F432W, V787W, I1280W, I1583W counted along it
Nav1.4 (Homo sapiens, UniProt P35499, F432W/I1280W/I1583W/V787W), sequence (Q07699 19-218 partner): as the sequence (Q07699 19-218 partner) above
Nav1.4 (Homo sapiens, UniProt P35499, F1586A), sequence (P35499 whole entry F1586A): as the sequence (P35499 whole entry) above, with F1586A counted along it
Nav1.4 (Homo sapiens, UniProt P35499, F1586A), sequence (Q07699 19-218 partner): as the sequence (Q07699 19-218 partner) above

C=C(C)[C@@H]1CCC(C)=C[C@H]1c1c(O)cc(CCCCC)cc1O [Cannabidiol]
inhibition at 10 µM (Nav1.4 [1]; CHO-K1, read-out: % block at 10 μM): 25.3%

O=C(NCC1CCCCN1)c1cc(OCC(F)(F)F)ccc1OCC(F)(F)F (stereo not drawn) [flecainide]
inhibition at 350 µM (Nav1.4 [2]; CHO-K1, read-out: % block at 350 μM): 76.4%
inhibition at 350 µM (Nav1.4 [3]): 64.6%

CCN(CC)CC(=O)Nc1c(C)cccc1C [lidocaine]
inhibition at 1100 µM (Nav1.4 [2]; [5]): 53.6%
inhibition at 1100 µM (Nav1.4 [4]): 60.6%
inhibition at 1100 µM (Nav1.4 [1]; [5]): 24.6%

— paper PMC8042605 (The Journal of General Physiology, 2021)
